Assay results published in patent US20210405025A1, “IDENTIFYING COMPOUNDS FOR TREATING CANCER AND USE THEREOF” (THE UAB RESEARCH FOUNDATION, priority 2018, published 2021).
Structures can show the parent of a compound that is named as a salt.

Tested on: relapsed AML cells
Test: Drug sensitivity assay, 1,536-well, 3-day culture with individual approved drugs at 10 μM, viability by alamarBlue
Type: cell-based, human
Details: number of relapsed AML cases out of 18 tested with >70% cell death; 10 μM, 3-day culture
How it was run: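 FACS-sorted viable myeloid blasts from thawed AML samples, 4,000-4,500 cells per 5 μL well, cultured in IMDM with 15% BIT, SCF, FLT3L, IL-3, G-CSF. Drugs added per well; after three days percentage of live cells measured to gauge killing.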

| Compound | #Cases >70% cell death |
| --- | --- |
| NC[C@H]1O[C@H](O[C@H]2[C@H](O)[C@@H](O[C@H]3O[C@H](CO)[C@@H](O)[C@H](N)[C@H]3O)[C@H](N)C[C@@H]2N)[C@H](N)C[C@@H]1O [TOBRAMYCIN] | 1 |
| NONOXYNOL-9 | 2 |
| CO[C@H]1C[C@H](O[C@H]2[C@H](C)O[C@@H](O[C@@H]3/C(C)=C/C[C@@H]4C[C@@H](C[C@]5(C=C[C@H](C)[C@@H](C6CCCCC6)O5)O4)OC(=O)[C@@H]4C=C(C)[C@@H](O)[C@H]5OC/C(=C\C=C\[C@@H]3C)[C@]54O)C[C@@H]2OC)O[C@@H](C)[C@@H]1O [DORAMECTIN] | 18 |
| CC(=O)O[C@H]1C(=O)[C@@]2(C)[C@H]([C@H](OC(=O)c3ccccc3)[C@]3(O)C[C@H](OC(=O)[C@H](O)[C@@H](NC(=O)c4ccccc4)c4ccccc4)C(C)=C1C3(C)C)[C@]1(OC(C)=O)CO[C@@H]1C[C@@H]2O [PACLITAXEL] | 5 |
| COc1cccc(-c2cc(F)ccc2[C@H]2Cc3nc(N)nc(C)c3C(=O)N2)n1 [HSP-990] | 17 |
| IVERMECTIN | 18 |
| CCN(CC)CCN(Cc1ccc(-c2ccc(C(F)(F)F)cc2)cc1)C(=O)Cn1c(SCc2ccc(F)cc2)nc(=O)c2c1CCC2 [DARAPLADIB] | 18 |
| CN(C)CCCOc1nn(Cc2ccccc2)c2ccccc12 [BENZYDAMINE] | 4 |
| CCNC1(C(N)=O)CCN(c2ncnc3c2nc(-c2ccccc2Cl)n3-c2ccc(Cl)cc2)CC1 [CP-945] | 1 |
| Cn1cc(-c2[nH]c3cc(NC(=O)[C@H](N)C4CCCCC4)cc4c3c2C=NNC4=O)cn1 [PF-00477736] | 13 |
| CCC1=C[C@@H]2CN(CCc3c([nH]c4ccccc34)[C@@](C(=O)OC)(c3cc4c(cc3OC)N(C)[C@H]3[C@@](O)(C(=O)OC)[C@H](OC(C)=O)[C@]5(CC)C=CCN6CC[C@]43[C@@H]65)C2)C1 [ANHYDROVINBLASTINE] | 5 |
| CO[C@H]1C(=O)[C@]2(C)[C@@H](OC)C[C@H]3OC[C@@]3(OC(C)=O)[C@H]2[C@H](OC(=O)c2ccccc2)[C@]2(O)C[C@H](OC(=O)[C@H](O)[C@@H](NC(=O)OC(C)(C)C)c3ccccc3)C(C)=C1C2(C)C [CABAZITAXEL] | 5 |
| CC1=C(C)C(=O)C(C(CCCCCC(=O)O)c2ccccc2)=C(C)C1=O (stereo not drawn) [SERATRODAST] | 1 |
| CC(=O)OCC(=O)[C@@]12OC(C)(C)O[C@@H]1C[C@H]1[C@@H]3C[C@H](F)C4=CC(=O)C=C[C@]4(C)[C@@]3(F)[C@@H](O)C[C@@]12C [FLUOCINONIDE] | 1 |
| COc1cc(C(=O)OCCCN2CCCN(CCCOC(=O)c3cc(OC)c(OC)c(OC)c3)CC2)cc(OC)c1OC [DILAZEP DIHYDROCHLORIDE] | 2 |
| COc1cc2c(cc1O)CC[C@@H]1[C@@H]2CC[C@]2(C)[C@@H](O)CC[C@@H]12 [2-METHOXYESTRADIOL] | 2 |
| Nc1ccncc1 [4-AMINOPYRIDINE] | 1 |
| CCCSc1ccc2nc(NC(=O)OC)[nH]c2c1 [ALBENDAZOLE] | 9 |
| Cn1nnc2c(C(N)=O)ncn2c1=O [TEMOZOLAMIDE] | 14 |
| EXATECAN MESYLATE | 12 |
| CC(C)OC(=O)C(C)(C)Oc1ccc(C(=O)c2ccc(Cl)cc2)cc1 [FENOFIBRATE] | 3 |
| Nc1nc(F)nc2c1ncn2[C@@H]1O[C@H](COP(=O)(O)O)[C@@H](O)[C@@H]1O [FLUDARABINE PHOSPHATE] | 4 |
| O=C(/C=C/c1cccc(S(=O)(=O)Nc2ccccc2)c1)NO [BELINOSTAT] | 1 |
| CCCCC(CC)CNC(=N)NC(=N)NCCCCCCNC(=N)NC(=N)NCC(CC)CCCC (stereo not drawn) [ALEXIDINE] | 18 |
| O=C(c1ccc(OCCN2CCCCC2)cc1)c1c(-c2ccc(O)cc2)sc2cc(O)ccc12 [RALOXIFENE] | 3 |
| Fc1ccc(C(c2ccc(F)cc2)N2CCN(C/C=C/c3ccccc3)CC2)cc1 [FLUNARIZINE] | 3 |

| Compound | #Cases >70% cell death |
| --- | --- |
| CCC(C)(C)c1ccc(CC(C)CN2C[C@@H](C)O[C@@H](C)C2)cc1 (stereo partly drawn) [AMOROLFINE] | 9 |
| COc1cc2c(Nc3ccc(Br)cc3F)ncnc2cc1OCC1CCN(C)CC1 [VANDETANIB] | 1 |
| C[C@@H]1O[C@@H](O[C@H]2C[C@@H](O)[C@]3(CO)[C@H]4[C@H](O)C[C@]5(C)[C@@H](C6=CC(=O)OC6)CC[C@]5(O)[C@@H]4CC[C@]3(O)C2)[C@H](O)[C@H](O)[C@H]1O.O.O.O.O.O.O.O.O [STROPHANTINE OCTAHYDRATE] | 18 |
| C1CCC(C(CC2CCCCN2)C2CCCCC2)CC1 (stereo not drawn) [PERHEXILINE MALEATE] | 13 |
| NALTRIBEN METHAN[…] | 1 |
| COC1=CC(c2cc3ccccc3[nH]2)=N/C1=C\c1[nH]c(C)cc1C [OBATOCLAX] | 2 |
| CCOc1cc2ncc(C#N)c(Nc3ccc(OCc4cccc(F)c4)c(Cl)c3)c2cc1NC(=O)/C=C/CN(C)C [HKI 357] | 4 |
| CC(=O)O[C@@]12CO[C@@H]1C[C@H](O)[C@@]1(C)C(=O)[C@H](O)C3=C(C)[C@@H](OC(=O)[C@H](O)[C@@H](NC(=O)OC(C)(C)C)c4ccccc4)C[C@@](O)([C@@H](OC(=O)c4ccccc4)[C@H]21)C3(C)C [DOCETAXEL] | 5 |
| Cc1cc(C(C)(C)CC(C)(C)C)ccc1OCCOCC[N+](C)(C)Cc1ccccc1.[Cl-] [METHYLBENZETHONIUM CHLORIDE] | 16 |
| COc1ccc2c(c1)CN(C(=O)CCN1CCC(Cc3ccccc3)CC1)CCS2 [K201] | 4 |
| CCCCCCc1ccc(O)cc1O.Nc1c2ccccc2nc2ccccc12 [ACRISORCIN] | 18 |
| O=C(NC1CCNCC1)c1[nH]ncc1NC(=O)c1c(Cl)cccc1Cl [AT-7519] | 18 |
| O=C1NCCc2[nH]c(-c3ccncc3)cc21 [PHA-767491] | 18 |
| Cc1nccn1CC1CCc2c(c3ccccc3n2C)C1=O (stereo not drawn) [ONDANSETRON (Zofran), ONDANSETRON] | 1 |
| COc1c(C)c2c(c(O)c1C/C=C(\C)CCC(=O)O)C(=O)OC2 [MYCOPHENOLIC ACID] | 5 |
| CCc1cc(Cl)c(OC)c(C(=O)NC[C@@H]2CCCN2CC)c1O [ETICLOPRIDE HYDROCHLORIDE] | 1 |
| CN1CCC[C@@H]1CCO[C@](C)(c1ccccc1)c1ccc(Cl)cc1 [CLEMASTINE] | 1 |
| Cc1[nH]c2ccccc2c1CCNCc1ccc(/C=C/C(=O)NO)cc1 [PANOBINOSTAT] | 1 |
| Cc1cnc(C(=O)O)c[n+]1[O-] [ACIPIMOX] | 1 |
| c1ccc2c(CCNc3ccc(Nc4ccncc4)cc3)c[nH]c2c1 | 12 |
| Clc1ccc(CCC(Cn2ccnc2)Sc2c(Cl)cccc2Cl)cc1 (stereo not drawn) [BUTOCONAZOLE] | 1 |
| CN(Cc1cc(Br)cc(Br)c1N)C1CCCCC1 [BROMHEXINE] | 1 |
| CCC(=O)O[C@]1(C(=O)CCl)[C@@H](C)C[C@H]2[C@@H]3C[C@H](F)C4=CC(=O)C=C[C@]4(C)[C@@]3(F)[C@@H](O)C[C@@]21C [HALOBETASOL PROPIONATE] | 3 |
| CN(c1ncccc1CNc1nc(Nc2ccc3c(c2)CC(=O)N3)ncc1C(F)(F)F)S(C)(=O)=O [PF-562271] | 18 |
| CCCCCN(C)CCC(O)(P(=O)(O)O)P(=O)(O)O [IBANDRONATE] | 1 |
